In patent US20100190187A1, “Screening Assays for Antagonists and Analyses of Cardiac Hypertrophy” (The Regents of the University of Michigan Office of …, priority 2006, published 2010):

Tests used:
Type in all cases: cell-based, murine
[1] = system: HL-1 cells; assay: Western blot of hypertrophy biomarkers in HL-1 cells; conditions: for dose dependence of expression of the VDR: FIG. 13(C), compared to control
Description: Screening assays employing incubation of VDR containing cells with and without a test compound. Cell extracts can be prepared and screened for increases or decreases of cardiac hypertrophy biomarkers or increase in PKC activity, VDR expression, myotrophin expression, using antibody detection methods described herein. Equivalent protein quantities of test compound cell extracts and control cell extracts can be loaded onto continuous or discontinuous PAGE gels and electrophoresed from 15 min to 24 hours, depending on the size of the gel. Following electrophoresis, the proteins can be electrophoretically transferred to PVDF membranes and probed with antibodies specific for example to Protein Kinase C and downstream regulated products c-myc, VDR, ANP, calbindin 9 and 32 and myotrophin. Bound antibodies can be visualized using chemiluminescent detection, chromatic detection or any method of detection of labeled membrane bound antibodies otherwise known as Western blotting. […] In FIG. 13(A), Western blots reveal that when HL-1 cells are incubated in the presence of a control sample (left lane) and a test compound (right lane). In some embodiments, for example, Vitamin D3 analog or metabolite, can be the test compound, or Vitamin D3 can be a control to measure the activity of the test compound. As shown in FIG. 13(A), Vitamin D3 reduces the expression of ANP, c-myc and calbindin 9 as compared to cells not incubated in the presence if Vitamin D3. […] Vitamin D3 has a positive up-regulating effect upon the expression of the VDR in HL-1 cells.
Treated and control samples of HL-1 cells are trypsinized and removed from flasks. Cell counts are performed under microscope with a Fisher hemacytometer. Samples are centrifuged at 3000 RPM for 2 minutes to obtain a pellet, which is then re-suspended in an SDS-leupeptin sample buffer (SB). This whole cell lysate can then be boiled for 15 minutes, separated into working aliquots, and stored at −20° C. for analysis. Standard Bradford Protein Determination is then performed on all samples. Samples are then electrophoresed as described in Example 4. Following electrophoresis, protein is transferred onto a PVDF (Millipore) membrane. After blocking the membrane for one hour with 5% milk in TBS containing 0.05% Tween 20 (Sigma), the blots are incubated with primary and secondary antibodies according to the dilutions listed below. The blot is washed three times in TBS/0.5% Tween 20 after each incubation, followed by one final wash in TBS. The membrane can then be treated with ECL developer (Amersham Biosciences) and exposed to Kodak Biomax XAR film. To confirm equal loading of protein into the wells each blot can be stripped and re-probed with HRP conjugated goat anti-mouse actin antibody (sc-1616HRP; Santa Cruz Biotechnology Co; 1:1000). The primary antibodies that can be used include rabbit anti-mouse VDR (sc-1008; Santa Cruz Bio; 1:200 dilution); rabbit anti-mouse ANP (AB 5490; Chemicon; 1:500 dilution), mouse monoclonal anti-myotrophin (V11220; BD Transduction Laboratory; 1:1000), rabbit anti-mouse c-myc (sc-764, Santa Cruz Bio; 1:100), and goat anti-mouse calbindin-9 (sc-18038, Santa Cruz Bio; 1:100). The secondary antibodies which can be used include HRP conjugated goat anti-rabbit (AP 132P, Chemicon; 1:1000) for VDR, ANP, and c-myc. HRP conjugated goat anti-mouse (A 2304, Sigma; 1:1000), and bovine anti-goat Ab (sc2350, Santa Cruz Bio; 1:250), for myotrophin and calbindin-9, respectively.

[2] = system: HL-1 cells; assay: HL-1 cell morphology by light microscopy; conditions: FIG. 11, versus control vehicle
Description: In some embodiments, screening assays can be included to determine whether the test compound can alter the structural morphology of the cardiac myocyte in cell culture. HL-1 cells can be incubated in the presence and absence of a test compound to determine whether structural changes can be observed by light microscopy.
HL-1 cells are obtained from Dr. W. C. Claycomb, Louisiana State University Medical Center, New Orleans, La. HL-1 cells (passages 55-75) are maintained at 37° C. under a 5% C02/air atmosphere in Claycomb medium (JRL Bioscience) supplemented with 10% fetal bovine serum, 0.29 mg/mL L-glutamine, 100 units/mL penicillin, 100 μg/mL streptomycin (all Gibco), and 0.1 mM norepinephrine (Sigma). The medium can be replaced approximately every 24 hours. HL-1 cells were grown in T25 culture flasks which were precoated overnight with 2 μg/cm fibronectin/0.02% gelatin solution. HL-1 cells were maintained until they reached confluence at which time the cells were removed by trypsinization and passed into another T25 culture flask coated with gelatin/fibronectin. Cells can be ultimately passed into T75 flasks to increase the number of cells prior to experimentation. Vitamin D experiments are performed in either T75 flasks, or Lab-Tech 2-well slides (for immunohistochemistry), 24 hours after a 1:2 split of confluent cells. […]

[3] = system: HL-1 cells; assay: HL-1 cell growth and proliferation; conditions: compared to HL-1 cells incubated with vehicle, FIG. 10
Description: HL-1 cells are obtained from Dr. W. C. Claycomb, Louisiana State University Medical Center, New Orleans, La. HL-1 cells (passages 55-75) are maintained at 37° C. under a 5% C02/air atmosphere in Claycomb medium (JRL Bioscience) supplemented with 10% fetal bovine serum, 0.29 mg/mL L-glutamine, 100 units/mL penicillin, 100 μg/mL streptomycin (all Gibco), and 0.1 mM norepinephrine (Sigma). The medium can be replaced approximately every 24 hours. HL-1 cells were grown in T25 culture flasks which were precoated overnight with 2 μg/cm fibronectin/0.02% gelatin solution. […]
HL-1 cells are grown in 10% FCS-supplemented medium or medium supplemented with 1% ITS and treated with either 0.1% EtOH (control vehicle), 1, 10 or 100 nM 1,25(OH) 2D3, 100 nM PMA or 1 mM PMA or 1 mM 24,25(OH) 2D3 or 25(OH)D3 for 2 or 4 days. At each time point the myocytes are removed from the dish using a Trypsin-EDTA solution (Sigma Chemical, St. Louis, Mo.) and counted using a Coulter Counter (Model ZF, Coulter Electronics, Hialeah, Fla.). Protein levels can be determined after 2 days using the Bradford protein assay (14). […] The HL-1 cells can then be examined on a flow cytometer (Coulter Elite, Coulter Electronics, Hialeah, Fla.) and cell cycle distribution can be determined by using MODFIT (v. 5.2).

How did the “levels of intracellular ANP” value ([1]; FIG. 13(A)) turn out when `C=C1CC[C@H](O)C/C1=C/C=C1\CCC[C@]2(C)[C@@H]([C@H](C)CCCC(C)C)CC[C@@H]12` [Vitamin D3] was run?
Its value is “significantly reduced levels”.

And the “levels of intracellular Calbindin 9” value ([1]; FIG. 13(A))?
Its value is “significantly reduced levels”.

And the “levels of intracellular c-myc” value ([1]; FIG. 13(A))?
Its value is “significantly reduced levels”.

What about the “expression of the VDR” value ([1]; FIG. 13(B), 1 and 24 hours post exposure) of the same compound?
The value was “up-regulated”.

And the “dose dependence of expression of the VDR” value [1]?
The value was “dose dependent”.

And the “dose dependence of expression of the VDR” value ([1]; listed as Vitamin D 3)?
The value was “dose dependent induction of expression of VDR”.

And the “structural morphology of HL-1 cells” value [2]?
The value was “growth and presence of structural appendages called dendrites”.

And the “inhibition of HL-1 growth / cellular proliferation” value [3]?
Its value is “dose dependent inhibition of cellular proliferation”.

And the “inhibition of HL-1 growth / cellular proliferation” value ([3]; listed as Vit D)?
The value was “dose dependent inhibition of HL-1 growth”.
